Laboratory results: US20210085640A1, “ACYLATED CATECHIN POLYPHENOLS AND METHODS OF THEIR USE FOR THE TREATMENT OF CANCER” (Flagship Pioneering Innovations V, Inc., priority 2018, published 2021)

What was measured:
Assay type in all cases: cell-based
T24 bladder cancer cells = test: Cancer cell survival (CellTiter-Glo), T24; details: Homo sapiens, 72 h, read-out: Cell survival at given concentration
How it was run: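 T24 cells seeded at 4×10^3 cells/well overnight, then exposed 72 h at 37 C, 5% CO2 to nine concentrations in triplicate. Survival measured by CellTiter-Glo luminescence relative to untreated and medium controls; IC50 derived.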

[1] = tested on: Daudi lymphoma cancer cells; test: Cancer cell survival (CellTiter-Glo), Daudi; details: Homo sapiens, 72 h, read-out: Cell survival at given concentration
How it was run: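 Daudi cells (4×10^3/well) were exposed for 72 h at 37 °C to nine concentrations of compound, added as 10× solutions spanning 1 μM–10 mM (fatty acids) or 100 nM–1 mM (others). CellTiter-Glo luminescence gave % survival versus untreated, medium-blank corrected; IC50 derived.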

MCF7 breast cancer cells = test: Cancer cell survival (CellTiter-Glo), MCF7; details: Homo sapiens, 72 h, read-out: Cell survival at given concentration
How it was run: (§1)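 Cells seeded at 4×10^3 cells/well, incubated overnight, then treated in triplicate at nine concentrations for 72 h at 37 C, 5% CO2. Viability by CellTiter-Glo luminescence, survival % normalized to untreated and medium controls; IC50 derived.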

[2] = tested on: HCT 116 colorectal cancer cells; test: Cancer cell survival (CellTiter-Glo), HCT 116; details: Homo sapiens, HCT 116 cells, 72 h, read-out: Cell survival at given concentration
How it was run: as §1

A549 lung cancer cells = test: Cancer cell survival (CellTiter-Glo), A549; details: Homo sapiens, 72 h, read-out: Cell survival at given concentration
How it was run: as §1

[3] = tested on: PC-3 prostate cancer cells; test: Cancer cell survival (CellTiter-Glo), PC-3; details: Homo sapiens, PC-3 cells, 72 h, read-out: Cell survival at given concentration
How it was run: as §1

A-431 skin cancer cells = test: Cancer cell survival (CellTiter-Glo), A-431; details: Homo sapiens, A-431 cells, 72 h, read-out: Cell survival at given concentration
How it was run: as §1

AGS stomach cancer cells = test: Cancer cell survival (CellTiter-Glo), AGS; details: 72 h
How it was run: as §1

[4] = Human Regulatory T Cell Differentiation Assay; details: human, primary naïve CD4+ T cells isolated from PBMCs, read-out: Cell viability % DMSO
Description: Peripheral blood mononuclear cells (PBMCs) from whole blood donated by health volunteers were separated by Ficoll-Paque gradient centrifugation and naïve CD4^+ T cells were subsequently isolated using magnet beads (EasySep™ Human Naïve CD4^+ T Cell Isolation Kit, Cambridge, Mass.). For regulatory T cell (Treg) differentiation assay, naïve CD4^+ T cells were cultured (1-10×10^4 cells) in CTS OpTmizer medium for 6 days and stimulated with 5 ng/ml TGF-β, 100 U/ml IL-2, and ImmunoCult™ Human […] T Cell Activator; Stemcell #10990) with/without Compounds. Cell viability was determined using a viability dye (eBioscience Fixable Viability Dye eFluor 780: ThermoFisher 65-0865-14) at 1:500 dilution. The cells were gated for Treg, defined as Live, CD11c^−, CD14^−, CD19^−, CD8^−, CD4^+, CD3^+, CD25^+, FOXP3^+. Percent (%) Tregs were calculated as percentage of CD4^+, CD25^+, FOXP3^+ cells over total CD4^+ T cells. Statistical analysis was performed with GraphPad Prism Software Using One-Way ANOVA.

O=C[C@H](O)[C@@H](O)[C@@H](O)CO [L-arabinose]
viability at 0.101 µM (T24 bladder cancer cells; T-24, 101 nM): 100%
viability at 0.318 µM (T24 bladder cancer cells; T-24, 318 nM): 103%
viability at 1 µM (T24 bladder cancer cells; T-24, 1 μM): 100%
viability at 3 µM (T24 bladder cancer cells; T-24, 3 μM): 103%
viability at 10 µM (T24 bladder cancer cells; T-24, 10 μM): 102%
viability at 32 µM (T24 bladder cancer cells; T-24, 32 μM): 105%
viability at 100 µM (T24 bladder cancer cells; T-24, 100 μM): 101%
viability at 316 µM (T24 bladder cancer cells; T-24, 316 μM): 101%
viability at 1000 µM (T24 bladder cancer cells; T-24, 1000 μM): 104%
viability at 0.101 µM ([1]; 101 nM): 100%
viability at 0.318 µM ([1]; 318 nM): 100%
viability at 1 µM ([1]; 1 μM): 100%
viability at 3 µM ([1]; 3 μM): 99%
viability at 10 µM ([1]; 10 μM): 102%
viability at 32 µM ([1]; 32 μM): 102%
viability at 100 µM ([1]; 100 μM): 103%
viability at 316 µM ([1]; 316 μM): 102%
viability at 1000 µM ([1]; 1000 μM): 102%
viability at 0.101 µM (MCF7 breast cancer cells; 101 nM): 99%
viability at 0.318 µM (MCF7 breast cancer cells; 318 nM): 101%
viability at 1 µM (MCF7 breast cancer cells; 1 μM): 98%
viability at 3 µM (MCF7 breast cancer cells; 3 μM): 101%
viability at 10 µM (MCF7 breast cancer cells; 10 μM): 99%
viability at 32 µM (MCF7 breast cancer cells; 32 μM): 101%
viability at 100 µM (MCF7 breast cancer cells; 100 μM): 99%
viability at 316 µM (MCF7 breast cancer cells; 316 μM): 98%
viability at 1000 µM (MCF7 breast cancer cells; 1000 μM): 98%
viability at 0.101 µM ([2]; 101 nM): 101%
viability at 0.318 µM ([2]; 318 nM): 101%
viability at 1 µM ([2]; 1 μM): 101%
viability at 3 µM ([2]; 3 μM): 103%
viability at 10 µM ([2]; 10 μM): 103%
viability at 32 µM ([2]; 32 μM): 104%
viability at 100 µM ([2]; 100 μM): 104%
viability at 316 µM ([2]; 316 μM): 102%
viability at 1000 µM ([2]; 1000 μM): 99%
viability at 0.101 µM (A549 lung cancer cells; 101 nM): 101%
viability at 0.318 µM (A549 lung cancer cells; 318 nM): 103%
viability at 1 µM (A549 lung cancer cells; 1 μM): 104%
viability at 3 µM (A549 lung cancer cells; 3 μM): 102%
viability at 10 µM (A549 lung cancer cells; 10 μM): 103%
viability at 32 µM (A549 lung cancer cells; 32 μM): 103%
viability at 100 µM (A549 lung cancer cells; 100 μM): 102%
viability at 316 µM (A549 lung cancer cells; 316 μM): 102%
viability at 1000 µM (A549 lung cancer cells; 1000 μM): 104%
viability at 0.101 µM ([3]; 101 nM): 103%
viability at 0.318 µM ([3]; 318 nM): 100%
viability at 1 µM ([3]; 1 μM): 100%
viability at 3 µM ([3]; 3 μM): 101%
viability at 10 µM ([3]; 10 μM): 103%
viability at 32 µM ([3]; 32 μM): 101%
viability at 100 µM ([3]; 100 μM): 100%
viability at 316 µM ([3]; 316 μM): 101%
viability at 1000 µM ([3]; 1000 μM): 100%
viability at 0.101 µM (A-431 skin cancer cells; 101 nM): 103%
viability at 0.318 µM (A-431 skin cancer cells; 318 nM): 102%
viability at 1 µM (A-431 skin cancer cells; 1 μM): 102%
viability at 3 µM (A-431 skin cancer cells; 3 μM): 103%
viability at 10 µM (A-431 skin cancer cells; 10 μM): 103%
viability at 32 µM (A-431 skin cancer cells; 32 μM): 105%
viability at 100 µM (A-431 skin cancer cells; 100 μM): 105%
viability at 316 µM (A-431 skin cancer cells; 316 μM): 105%
viability at 1000 µM (A-431 skin cancer cells; 1000 μM): 102%
viability at 0.101 µM (AGS stomach cancer cells; 101 nM, read-out: Cell survival at given concentration): 100%
viability at 0.318 µM (AGS stomach cancer cells; 318 nM, read-out: Cell survival at given concentration): 102%
viability at 1 µM (AGS stomach cancer cells; 1 μM, Table 10.1, read-out: Cell survival at given concentration): 101%
viability at 3 µM (AGS stomach cancer cells; 3 μM, Table 10.1, read-out: Cell survival at given concentration): 102%
viability at 10 µM (AGS stomach cancer cells; 10 μM, Table 10.1, read-out: Cell survival at given concentration): 102%
viability at 32 µM (AGS stomach cancer cells; 32 μM, Table 10.1, read-out: Cell survival at given concentration): 104%
viability at 100 µM (AGS stomach cancer cells; 100 μM, Table 10.1, read-out: Cell survival at given concentration): 105%
viability at 316 µM (AGS stomach cancer cells; 316 μM, read-out: Cell survival at given concentration): 102%
viability at 1000 µM (AGS stomach cancer cells; 1000 μM, read-out: Cell survival at given concentration): 101%
viability at 6 days, 0.5 mM ([4]; 0.5 mM): 90 to 110%
viability at 6 days, 1 mM ([4]; 1 mM): 90 to 110%
